# Experimental data published in patent US4418068A, “Antiestrogenic and antiandrugenic benzothiophenes” (Eli Lilly and Company, priority 1981, dated 1983).
# What was measured:
# [1] = tested on: estrogenic response of estradiol; test: Antiestrogenic Test, immature rats (uterine weight); type: in vivo; conditions: Experiment I, 3 mg., s.c. + estradiol 0.3 mcg.
# Experimental: (§1) This test was conducted with immature 40-45 g. female rats, immature 11-13 g. mice, and adult ovariectomized mice. The rats were tested in groups of six, and mice in groups of ten. All of the laboratory animals were from standardized strains and were equilibrated to the laboratory before the test started. Each test was begun by administering the test compound daily for three days, as a subcutaneous injection or by oral gavage, as indicated below in the reports of individual experiments.
# (§2) The test animals were treated for three days and sacrificed on the fourth day, and the uteri were removed, freed of extraneous tissue, and blotted with paper towels. The uteri were weighed to the nearest 0.1 mg.
# (§3) The uterine weights are given, in mg., as the means of all of the organ weights of the animals in a group. Compounds are referred to by their example numbers above.
# (§4) The same standardized types of laboratory animals which were used in the experiments described above were also used in these experiments. […] Untreated control animals were used in each experiment. […] The dosage and sacrifice schedule, and the method of determining uterine weights and reporting data, were the same as the methods described above under Test 1.
# estrogenic response [2] = test: Estrogenic Response Test, immature rats (uterine weight); type: in vivo, immature 40-45 g. female rats; conditions: s.c.
# Experimental: (§5) The first test reported below is used to determine the estrogenic potency of compounds. It is well known that many compounds having antiestrogenic activity also, typically, have estrogenic activity. As has been explained, estrogenic activity is a liability in an antiestrogen, and thus it is important to identify antiestrogens having a minimum amount of estrogenic activity. This test was conducted with immature 40-45 g. female rats, immature 11-13 g. mice, and adult ovariectomized mice. The rats were tested in groups of six, and mice in groups of ten. All of the laboratory animals were from standardized strains and were equilibrated to the laboratory before the test started. Each test was begun by administering the test compound daily for three days, as a subcutaneous injection or by oral gavage, as indicated below in the reports of individual experiments. Untreated control animals were included in each experiment, along with animals to which estradiol was administered subcutaneously. The estradiol-treated animals provided positive controls, showing the physiological effect of a potent estrogen on the individual group of animals used in the experiment. […] The test animals were treated for three days and sacrificed on the fourth day, and the uteri were removed, freed of extraneous tissue, and blotted with paper towels. The uteri were weighed to the nearest 0.1 mg. The tables below report the results of representative experiments. The doses of estradiol and of the compound of this invention are given as the total of the three daily doses. The uterine weights are given, in mg., as the means of all of the organ weights of the animals in a group. Compounds are referred to by their example numbers above.
# [3] = Stability of the product on observation after several days; type: physicochemical
# [4] = tested on: DMBA-induced mammary tumors; test: Tests Against DMBA-Induced mammary tumors; type: in vivo, adult female virgin rats; conditions: Experiment D
# Excerpt: Mammary tumors were induced in adult female virgin rats by a single 20-mg. oral dose of 7,12-dimethylbenzanthracene. Within about six weeks, visible and palpable tumors were present in the mammary tissue of the rats, and the rats were allocated into treatment and control groups in such a way that each group contained animals having approximately the same size and number of tumors. The size of the tumors was estimated by measuring their cross-sectional area. […]
# […] The treated animals received 1 mg./kg. per day of 6-methoxy-2-(4-hydroxyphenyl)-3-[4-(2-piperidinoethoxy)benzoyl]benzo[b]thiophene, hydrochloride, as a subcutaneous injection in corn oil. The animals were not ovariectomized at the end of the experiment.
# uterine epithelial cells = conditions: known side-effect of earlier anti-estrogens; cited from earlier work
# estrogenic response [5] = conditions: Black and Goode 1980; cited from earlier work
# [6] = tested on: androgen-stimulated prostate growth; test: Anti-Androgen Test, immature male rats (ventral prostate weight); type: in vivo; conditions: androgen only 20 mcg./day s.c.
# Experimental: (§6) The animals used in this test were adult male rats having a body weight which averaged about 330 g. when the experiment ended. All of the animals to be used in the experiment were castrated by the scrotal route, and were held untreated for 3 days. On the fourth day, subcutaneous administration of 0.1 mg./day of an exogenous androgen, testosterone propionate, was begun, and was continued for seven consecutive days. An untreated control group of animals received injections of 0.1 ml./day of corn oil as a blank treatment. The compound of this invention was administered orally or subcutaneously to the treated animals in 0.1 ml. of corn oil, at the same time that the androgen was administered. The animals were sacrificed 24 hours after the last injection of testosterone propionate, the ventral prostate glands were removed and weighed, and the mean of the weights of each treatment group was reported.
# This experiment was carried out in the same manner as Experiment A above, except that the test animals were immature male rats, weighing about 120 g. each at sacrifice. Each treatment group consisted of six or seven animals. All treatments in this experiment were administered by subcutaneous injection. The amount of the androgen administered was only 20 mcg./day because of the small size of the animals.
# This experiment was also conducted in immature rats having average body weight of about 115 g. when the experiment ended. In other respects, the experiment was as described under Experiment B above. The treatment groups consisted of ten animals each, except for the androgen only group, of 16 animals, and the 5 mg./kg. group, of nine animals.
# [7] = tested on: androgen-stimulated prostate growth; test: Anti-Androgen Test, adult castrated male rats (ventral prostate weight); type: in vivo; conditions: Experiment A; androgen only, testosterone propionate 0.1 mg./day s.c., 7 days, castrated
# Experimental: The antiandrogenic property of the compounds was evaluated in the following tests, in which the compound of Example 3 was used again.
# as §6, with “reported. The table below reports the mean weights resulting from administration of various doses of the compound along with androgen.” for “reported.”
# Each treatment group of animals in this experiment consisted of seven to nine animals, except for the untreated control group, which contained twelve animals.
# [8] = tested on: estrogenic response of estradiol; test: Antiestrogenic Test, mature ovariectomized mice (uterine weight); type: in vivo, adult ovariectomized mice; conditions: Experiment A; estradiol alone 0.3 mcg., s.c.
# Experimental: as §1, §2, §3, §4
# estrogenic response [9] = test: Estrogenic Response Test, mature ovariectomized mice (uterine weight); type: in vivo, adult ovariectomized mice; conditions: Experiment E, s.c.
# Experimental: as §5
# estrogenic response [10] = test: Regression Test: reversal of established estrogenic response (uterine weight); type: in vivo, immature rats; conditions: estradiol alone 0.1 mcg./day s.c.
# Experimental: The following test was carried out to determine if the compounds of this invention could reverse an estrogenic response, when administration of the compound was started after the estrogenic response had become established.
# The test animals were immature rats, and all administrations were by subcutaneous injection.
# The mean uterine weights of these groups of animals, respectively, were 97.9, 97.3, 119.9 and 112.3 mg.
# The animals were sacrificed on the fifth day and their mean uterine weight was 56.4 mg.
# The animals were sacrificed on the seventh day and their mean uterine weight was 57.0 mg.
# estrogenic response [11] = test: Estrogenic Response Test, immature mice (uterine weight); type: in vivo, immature 11-13 g. mice; conditions: Experiment D, s.c.
# Experimental: as §5
# [12] = tested on: estrogenic response of estradiol; test: Antiestrogenic Test, immature mice (uterine weight); type: in vivo; conditions: Experiment B; estradiol alone 0.3 mcg., s.c.
# Experimental: as §1, §2, §3, §4
# [13] = 1 mg./kg. per day s.c., fifth week
compound,measurement,setting,value
"CC(=O)Oc1ccc(-c2sc3cc(OC(C)=O)ccc3c2C(=O)c2ccc(OCCN3CCCCC3)cc2)cc1 [Example 10, 6-acetoxy-2-(4-acetoxyphenyl)-3-[4-(2-piperidinoethoxy)benzoyl]benzo[b]thiophene]",Uterine weight,[1],32.2 mg
same,Uterine weight,"estrogenic response [2]; Experiment C, total dose 3 mg.",30.8 mg
"Cl.O=C(Oc1ccc(-c2sc3cc(OC(=O)c4ccccc4)ccc3c2C(=O)c2ccc(OCCN3CCCCC3)cc2)cc1)c1ccccc1 [Example 13, 6-benzoyloxy-2-(4-benzoyloxyphenyl)-3-[4-(2-piperidinoethoxy)benzoyl]benzo[b]thiophene, hydrochloride]",Uterine weight,[1],41.1 mg
same,Uterine weight,"estrogenic response [2]; Experiment C, total dose 3 mg.",39.6 mg
"O=C(O)C(F)(F)F.O=C(c1ccc(OCCN2CCCCC2)cc1)c1c(-c2ccc(OC(=O)C(F)(F)F)cc2)sc2cc(OC(=O)C(F)(F)F)ccc12 [Example 9, 6-trifluoroacetoxy-2-(4-trifluoroacetoxyphenyl)-3-[4-(2-piperidinoethoxy)benzoyl]benzo[b]thiophene, trifluoroacetate]",Uterine weight,[1],38.1 mg
same,Uterine weight,"estrogenic response [2]; Experiment C, total dose 3 mg.",31.3 mg
same,hydrolysis of ester groups,[3],some hydrolysis of one or both ester groups had occurred
"COc1ccc2c(C(=O)c3ccc(OCCN4CCCCC4)cc3)c(-c3ccc(O)cc3)sc2c1.Cl [Example 19, 6-Methoxy-2-(4-hydroxyphenyl)-3-[4-(2-piperidinoethoxy)benzoyl]benzo[b]thiophene, hydrochloride]",animals with completely regressed tumors,"[4]; 1 mg./kg. per day s.c. in corn oil, fourth week",three of the eight treated animals had completely regressed
same,completely regressed animals,[4]; [13],three completely regressed animals
same,"tumor area, upper end of range (single tumor)",[4]; [13],≤ 1974 sq. mm.
same,"average tumor area, other seven treated animals","[4]; 1 mg./kg. per day s.c., fifth week, animal with burst tumors excluded",398 square millimeters
same,tumor area of one animal (largest),"[4]; 1 mg./kg. per day s.c., four weeks",3764 sq. mm.
same,average tumor area of the other seven animals,"[4]; 1 mg./kg. per day s.c., four weeks, animal with 3764 sq. mm. ignored",254 sq. mm.
same,average total tumor area of the treated group,"[4]; 1 mg./kg. per day s.c., four weeks, eight animals",692 square millimeters
"CC/C(=C(\c1ccccc1)c1ccc(OCCN(C)C)cc1)c1ccccc1 [Tamoxifen, 1-(4-β-dimethylaminoethoxyphenyl)-1,2-diphenylbut-1-ene]",effect on uterine epithelial cells,uterine epithelial cells,causes abnormal growth of uterine epithelial cells
O=C(c1ccc(OCCN2CCCC2)cc1)c1c(-c2ccc(O)cc2)sc2cc(O)ccc12 [6-hydroxy-2-(4-hydroxyphenyl)-3-[4-(2-pyrrolidinoethoxy)benzoyl]benzo[b]thiophene],antiestrogenic effectiveness vs tamoxifen or trioxifene,estrogenic response [5],considerably more effective as an antiestrogen
same,estrogenicity vs tamoxifen or trioxifene,estrogenic response [5],considerably less estrogenic
"CCC(=O)O[C@H]1CC[C@H]2[C@@H]3CCC4=CC(=O)CC[C@]4(C)[C@H]3CC[C@]12C [Androgen, testosterone propionate, reference compound]",Mean Prostate Weight,[6]; Experiment B,48.7 mg
same,Mean Prostate Weight,[6]; Experiment C,43.5 mg
same,Mean Prostate Weight,[7],309 mg
"COc1ccc(-c2sc3cc(OC)ccc3c2C(=O)c2ccc(OCCN3CCCCC3)cc2)cc1.Cl [Example 14, 6-methoxy-2-(4-methoxyphenyl)-3-[4-(2-piperidinoethoxy)benzoyl]benzo[b]thiophene, hydrochloride]",Uterine weight,[1],37.5 mg
same,Uterine weight,"estrogenic response [2]; Experiment C, total dose 3 mg.",35.1 mg
"CCOC(=O)Oc1ccc(-c2sc3cc(OC(=O)OCC)ccc3c2C(=O)c2ccc(OCCN3CCCCC3)cc2)cc1 [Example 12, 6-ethoxycarbonyloxy-2-(4-ethoxycarbonyloxyphenyl)-3-[4-(2-piperidinoethoxy)benzoyl]benzo[b]thiophene]",Uterine weight,[1],31.8 mg
same,Uterine weight,"estrogenic response [2]; Experiment C, total dose 3 mg.",35.8 mg
"C[C@]12CC[C@@H]3c4ccc(O)cc4CC[C@H]3[C@@H]1CC[C@@H]2O [Estradiol, reference compound]",Uterine weight,[8],65.9 mg
same,Uterine weight,estrogenic response [9]; total dose 0.03 mcg.,25.8 mg
same,Uterine weight,estrogenic response [9]; total dose 0.1 mcg.,44.2 mg
same,Uterine weight,estrogenic response [9]; total dose 0.3 mcg.,65.9 mg
same,mean uterine weight,estrogenic response [10]; eight days,112.3 mg
same,mean uterine weight,estrogenic response [10]; four days,97.3 mg
same,mean uterine weight,estrogenic response [10]; six days,119.9 mg
same,mean uterine weight,estrogenic response [10]; three days,97.9 mg
same,Uterine weight,estrogenic response [11]; total dose 0.03 mcg.,33.3 mg
same,Uterine weight,estrogenic response [11]; total dose 0.09 mcg.,48.2 mg
same,Uterine weight,estrogenic response [11]; total dose 0.3 mcg.,50.3 mg
same,Uterine weight,"estrogenic response [2]; Experiment A, total dose 0.3 mcg.",74.6 mg
same,Uterine weight,"estrogenic response [2]; Experiment B, total dose 0.3 mcg.",56.8 mg
same,Uterine weight,"estrogenic response [2]; Experiment C, total dose 0.3 mcg.",63.1 mg
same,Uterine weight,[12],50.3 mg
"CCCCCCCCCCCC(=O)Oc1ccc(-c2sc3cc(OC(=O)CCCCCCCCCCC)ccc3c2C(=O)c2ccc(OCCN3CCCCC3)cc2)cc1 [Example 11, 6-dodecanoyloxy-2-(4-dodecanoyloxyphenyl)3-[4-(2-piperidinoethoxy)benzoyl]benzo[b]thiophene]",Uterine weight,[1],40.0 mg
same,Uterine weight,"estrogenic response [2]; Experiment C, total dose 3 mg.",37.1 mg
